Data on six compounds can be found in patent publication EP0046734A2, “Aminohydroxyphenyl derivatives of cephalosporins, process for their preparation and pharmaceutical compositions containing them” (CIBA-GEIGY AG, priority 1980, dated 1982).

Converted amounts (≈) assume the structure as drawn.

As usually defined, the ED50 is the dose that gives a 50% effect, or the effect in half of the subjects. High values mean a need for a large dose, low ones an effect at a small dose. By MIC is commonly meant the lowest concentration that inhibits growth of the organism. The low end stands for greater potency, the high end for weaker potency.

The test system of test [1] is Klebsiella pneumoniae 327. Description: Chemotherapeutic activity in vivo against systemic infection in mice (ED50). On the set-up: species or system weiblichen SPF, MF2 Mäusen. To be noted: po. The text has this:
(§1) B. Die chemotherapeutsche Wirksamkeit in vivo gegen systemische Infektionen in weiblichen SPF, MF2 Mäusen wurde nach der Methode von Zak, 0., et al., 1979, Drugs Exptl. Clin. Res. 5, 45.59, ermittelt. Die gefundenen ED50 -Werte in Milligramm Substanz pro Kilogramm Maus (mg/kg) gegen eine Anzahl von Mikroorganismen werden für die oral (p.o.) oder subcutan (s.c.) applizierten Testverbindungen in der Tabelle 2 angegeben.

The test system of the next test is Escherichia coli 205. Described as above. On the set-up: species or system weiblichen SPF, MF2 Mäusen.
Source text: as §1

A further test concerns Proteus mirabilis 774. Described as above. On the set-up: species or system weiblichen SPF, MF2 Mäusen. To be noted: po.
Source text: as §1

In test [2] the test system is Staphylococcus aureus 10 B. Described as above. On the set-up: species or system weiblichen SPF, MF2 Mäusen.
Source text: as §1

A further test has as its system Neisseria meningitidis. The test is described as follows: Antibiotic activity in vitro, agar dilution method in DST agar (MIC). Format: cell-based. The text has this: (§2) A. Die antibiotische Aktivität der Testverbindungen in vitro wurde durch die Agarverdünnungsmethode nach Ericsson, H.M. und Sherris, S.C., 1971, Acta Path. Microb. Scand. Section B, Suppl. No. 217, Bd. 1-90, in DST Agar ermittelt. Die gefundenen, das Wachstum der Testorganismen noch hemmenden Minimalkonzentrationen (MIC = minimum inhibiting concentrations) werden in Mikrogramm pro Milliliter (µg/ml) für die geprüften Verbindungen in der Tabelle 1 angegeben.

The subject of test [3] is Streptococcus pyogenes Aronson. The description is as above. Format: cell-based.
Source text: as §2

A further test has as its system Escherichia coli DC2. The description is as above. Format: cell-based.
Source text: as §2

The subject of test [4] is Klebsiella pneumoniae 372. Described as above. Format: cell-based.
Source text: as §2

As for `CCS(=O)(=O)Nc1cc([C@@H](N)C(=O)N[C@@H]2C(=O)N3C(C(=O)O)=C(OC)CS[C@H]23)ccc1O` [Verbindung 6, 7ß-[D-2-Amino-2-(3-äthylsulfonylamino-4-hydroxyphenyl)-acetylamino]-3-methoxy-ceph-3-em-4-carbonsäure], the ED50 was found to be 10 mg/kg in test [1]; 6 mg/kg in the test on Escherichia coli 205 (po); 8 mg/kg in the test on Escherichia coli 205 (sc); 30 mg/kg in the test on Proteus mirabilis 774; 6 mg/kg in test [2] (po); 15 mg/kg in test [2] (sc). Moreover, the MIC against Neisseria meningitidis came out at 0.1 µg/mL (≈ 0.206 µM); in test [3], 0.5 µg/mL (≈ 1.03 µM); in the test with Escherichia coli DC2, 2 µg/mL (≈ 4.11 µM); in test [4] it was 16 µg/mL (≈ 32.9 µM).
In the case of `CCS(=O)(=O)Nc1cc([C@@H](N)C(=O)N[C@@H]2C(=O)N3C(C(=O)O)=C(Cl)CS[C@H]23)ccc1O` [Verbindung 5, 7ß-[D-2-Amino-2-(3-äthylsulfonylamino-4-hydroxyphenyl)-acetylamino]-3-chlor-ceph-3-em-4-carbonsäure], the ED50 was determined as 1.4 mg/kg in test [1]; 4.5 mg/kg with Escherichia coli 205 (po); 3 mg/kg in the test with Escherichia coli 205 (sc); 30 mg/kg in the test with Proteus mirabilis 774; 7 mg/kg in test [2] (po); 10 mg/kg in test [2] (sc). The MIC in the test on Neisseria meningitidis was 0.1 µg/mL (≈ 0.204 µM); in test [3], 0.5 µg/mL (≈ 1.02 µM); against Escherichia coli DC2, 2 µg/mL (≈ 4.07 µM); in test [4], 1 µg/mL (≈ 2.04 µM).
For the compound `COC1=C(C(=O)O)N2C(=O)[C@@H](NC(=O)[C@H](N)c3ccc(O)c(NS(C)(=O)=O)c3)[C@H]2SC1` [Verbindung 1, 7ß-[D-2-Amino-2-(3-methylsulfonylamino-4-hydroxyphenyl)-acetylamino]-3-methoxy-ceph-3-em-4-carbonsäure], the ED50 came to 7 mg/kg in test [1]; 5 mg/kg with Escherichia coli 205 (po); 6 mg/kg in the test on Escherichia coli 205 (sc); 22 mg/kg in the test on Proteus mirabilis 774; 1.5 mg/kg in test [2] (po); 3 mg/kg in test [2] (sc). Moreover, the minimal inhibitory concentration (MIC) is 1 µg/mL (≈ 2.12 µM) in the test with Neisseria meningitidis, 0.1 µg/mL (≈ 0.212 µM) in test [3], 0.5 µg/mL (≈ 1.06 µM) with Escherichia coli DC2 and 2 µg/mL (≈ 4.23 µM) in test [4].
For the compound `CS(=O)(=O)Nc1cc([C@@H](N)C(=O)N[C@@H]2C(=O)N3C(C(=O)O)=CCS[C@H]23)ccc1O` [Verbindung 2, 7ß-[D-2-Amino-2-(3-methylsulfQnylamino-4-hydroxyphenyl)-acetylamino]-ceph-3-em-4-carbonsäure], the ED50 in test [1] is 3 mg/kg; with Escherichia coli 205 (po) it was 2.2 mg/kg; in the test with Proteus mirabilis 774, 22 mg/kg; in test [2] (po), 1.5 mg/kg; in test [2] (sc), 3 mg/kg. For the same compound, the MIC with Neisseria meningitidis is 8 µg/mL (≈ 18.1 µM); in test [3], 4 µg/mL (≈ 9.04 µM); against Escherichia coli DC2 it was 4 µg/mL (≈ 9.04 µM); in test [4] it was 4 µg/mL (≈ 9.04 µM).
As for `CCS(=O)(=O)Nc1cc([C@@H](N)C(=O)N[C@@H]2C(=O)N3C(C(=O)O)=CCS[C@H]23)ccc1O` [Verbindung 4, 7ß-[D-2-Amino-2-(3-äthylsulfonylamino-4-hydroxyphenyl)-acetylamino]-ceph-3-em-4-carbonsäure], the ED50 in test [1] is 1.4 mg/kg; with Escherichia coli 205 (po) it was 4.5 mg/kg; in the test on Escherichia coli 205 (sc), 3 mg/kg; in the test on Proteus mirabilis 774, 30 mg/kg; in test [2] (po) it was 1.5 mg/kg; in test [2] (sc) it was 3 mg/kg. The MIC against Neisseria meningitidis was 4 µg/mL (≈ 8.76 µM); in test [3], 1 µg/mL (≈ 2.19 µM); in the test with Escherichia coli DC2, 4 µg/mL (≈ 8.76 µM); in test [4], 4 µg/mL (≈ 8.76 µM).
Consider `CS(=O)(=O)Nc1cc([C@@H](N)C(=O)N[C@@H]2C(=O)N3C(C(=O)O)=C(Cl)CS[C@H]23)ccc1O` [Verbindung 3, 7ß-[D-2-Amino-2-(3-methylsulfonylamino-4-hydroxyphenyl)-acetylamino]-3-chlor-ceph-3-em-4-carbonsäure], for which the ED50 was 3 mg/kg in test [1]; 2 mg/kg in the test with Escherichia coli 205 (po); 3 mg/kg in the test on Escherichia coli 205 (sc); 4 mg/kg in the test with Proteus mirabilis 774; 4 mg/kg in test [2] (po); 10 mg/kg in test [2] (sc). Moreover, the MIC against Neisseria meningitidis was determined as 0.5 µg/mL (≈ 1.05 µM); in test [3] it was 0.5 µg/mL (≈ 1.05 µM); in the test with Escherichia coli DC2 it was 0.5 µg/mL (≈ 1.05 µM); in test [4] it was 1 µg/mL (≈ 2.1 µM).
